How the values were obtained:
Format in all cases: in vivo
[1] = system: Echinochloa oryzacola Vasing.; assay: Test Example 1: herbicidal activity, application before weed generation in submerged conditions (symbol A); conditions: application herbicide amount 320 g/ha
In short: (§1)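 Mixed weed seeds sown in alluvial soil under 4 cm of water, with rice seedlings at the 2.5-leaf stage added. Same-day treatment: emulsion diluted to a set herbicide amount onto the water. Three weeks at 25–30 °C, then graded on a six-step scale.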

Scirpus juncoides = assay: Test Example 1: herbicidal activity, application before weed generation in submerged conditions (symbol B); conditions: application herbicide amount 320 g/ha
In short: as §1

[2] = system: Echinochloa crus-galli var. crus-galli; assay: Test Example 3: herbicidal effect by foliage application, Wagner pot (symbol H); conditions: application herbicide amount 320 g/ha
In short: (§2)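 Alluvial soil was flooded to a depth of 0.1–0.5 cm, seeded with the weeds and rice, and kept in a greenhouse at 25–30 °C. After 14 days of growth, the foliage received a small-sprayer application of emulsion diluted to the intended rate; injury was rated at 3 weeks.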

Leptochloa chinensis = assay: Test Example 3: herbicidal effect by foliage application, Wagner pot (symbol D); conditions: application herbicide amount 320 g/ha
In short: as §2

Cyperus difformis = assay: Test Example 3: herbicidal effect by foliage application, Wagner pot (symbol E); conditions: application herbicide amount 320 g/ha
In short: as §2

[3] = system: directly sowed rice plant; assay: Test Example 3: effect on crop by foliage application, Wagner pot (symbol b); conditions: application herbicide amount 320 g/ha
In short: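 Alluvial soil in a 1/10000-are Wagner pot was flooded to a water depth of 0.1–0.5 cm. Echinochloa crus-galli var. crus-galli, Leptochloa chinensis, Cyperus difformis and rice were sown into it and grown in a greenhouse at 25–30 °C.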

Digitaria ciliaris = assay: Test Example 4: herbicidal effect by soil treatment (symbol F); conditions: application herbicide amount 320 g/ha
In short: (§3)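 Seeds were sown in sterilized diluvial soil, covered with about 1.5 cm of soil, and the soil surface was sprayed with a water-diluted emulsion of the compound at a predetermined rate. Plants grew in a greenhouse at 25° C. to 30° C.; effects were scored visually 3 weeks after application.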

Alopecurus myosuroides [4] = assay: Test Example 4: herbicidal effect by soil treatment (symbol J); conditions: application herbicide amount 320 g/ha
In short: as §3

corn = assay: Test Example 4: effect on crop by soil treatment (symbol c); conditions: application herbicide amount 320 g/ha
In short: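 Soil-treatment setup: crop and weed seeds were spot-sown into sterilized diluvial soil, then buried beneath approximately 1.5 cm of it, and the boxes were housed in a 25–30° C. greenhouse.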

rapeseed = assay: Test Example 4: effect on crop by soil treatment (symbol g); conditions: application herbicide amount 320 g/ha
In short: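 Plants grew in a 25° C. to 30° C. greenhouse after spot-sowing of seeds, including beet, rapeseed, wheat and rice, into sterilized diluvial soil under roughly 1.5 cm of cover soil.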

Alopecurus myosuroides [5] = assay: Test Example 5: herbicidal effect by foliage application, plastic box (symbol J); conditions: 320 g/ha, 3 weeks after application
In short: (§4)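 Greenhouse foliar test: seedlings at 14 days, grown 25° C. to 30° C. in sterilized diluvial soil; compound applied as an aqueous dilution of an emulsion; response read 3 weeks after spraying.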

Apera spica-venti = assay: Test Example 5: herbicidal effect by foliage application, plastic box (symbol L); conditions: 320 g/ha, 3 weeks after application
In short: as §4

Abutilon theophrasti = assay: Test Example 5: herbicidal effect by foliage application, plastic box (symbol M); conditions: 320 g/ha, 3 weeks after application
In short: as §4

Stellaria media = assay: Test Example 5: herbicidal effect by foliage application, plastic box (symbol P); conditions: 320 g/ha, 3 weeks after application
In short: as §4

Galium spurium = assay: Test Example 5: herbicidal effect by foliage application, plastic box (symbol Q); conditions: 320 g/ha, 3 weeks after application
In short: as §4

wheat = assay: Test Example 5: effect on crop by foliage application, plastic box (symbol e); conditions: 320 g/ha, 3 weeks after application
In short: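 Crop seed is sown alongside grass and broadleaf weed species in spots in sterilized diluvial soil, then covered to a depth of about 1.5 cm. Plants grow in a greenhouse kept at 25° C. to 30° C.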

SMILES | Herbicidal effect grade, A: Echinochloa oryzacola Vasing. [1] | Herbicidal effect grade, B: Scirpus juncoides (Scirpus juncoides) | herbicidal effect on H (Echinochloa crus-galli var. crus-galli), grade 0-5 [2] | herbicidal effect on D (Leptochloa chinensis), grade 0-5 (Leptochloa chinensis) | herbicidal effect on E, grade 0-5 (Cyperus difformis) | effect on crop b (directly sowed rice plant), grade 0-5 [3] | F (Digitaria ciliaris) herbicidal effect grade (Digitaria ciliaris) | J (Alopecurus myosuroides) herbicidal effect grade (Alopecurus myosuroides [4]) | c (corn) effect on crop grade (corn) | g (rapeseed) effect on crop grade (rapeseed) | J: Alopecurus myosuroides, herbicidal effect grade (Alopecurus myosuroides [5]) | L: Apera spica-venti, herbicidal effect grade (Apera spica-venti) | M: Abutilon theophrasti, herbicidal effect grade (Abutilon theophrasti) | P: Stellaria media, herbicidal effect grade (Stellaria media) | Q: Galium spurium, herbicidal effect grade (Galium spurium) | e: wheat, effect on crop grade (wheat)
CON=C(C)C(C)C1CC(O)=C(c2c(C)cc(C)cc2C)C1=O (centres unmarked) [1-032] | 5 (Herbicidal ratio of 90% or more (almost completely withered)) | 5 (Herbicidal ratio of 90% or more (almost completely withered)) | 5 (Herbicidal ratio of 90% or more (almost completely withered)) | 5 (Herbicidal ratio of 90% or more (almost completely withered)) | 5 (Herbicidal ratio of 90% or more (almost completely withered)) | 5 (Herbicidal ratio of 90% or more (almost completely withered)) | 5 (Herbicidal ratio of 90% or more (almost completely withered)) | 5 (Herbicidal ratio of 90% or more (almost completely withered)) | 4 (Herbicidal ratio of 70% or higher and lower than 90%) | 5 (Herbicidal ratio of 90% or more (almost completely withered)) | 5 (Herbicidal ratio of 90% or more (almost completely withered)) | 5 (Herbicidal ratio of 90% or more (almost completely withered)) | 4 (Herbicidal ratio of 70% or higher and lower than 90%) | 4 (Herbicidal ratio of 70% or higher and lower than 90%) | 4 (Herbicidal ratio of 70% or higher and lower than 90%) | 5 (Herbicidal ratio of 90% or more (almost completely withered))
CCCCCCCCC(=O)OC1=C(c2c(C)cc(C)cc2C)C(=O)C(CC(C)=NOC)C1 (centres unmarked) [1-033] | 5 (Herbicidal ratio of 90% or more (almost completely withered)) | 4 (Herbicidal ratio of 70% or higher and lower than 90%) | 5 (Herbicidal ratio of 90% or more (almost completely withered)) | 5 (Herbicidal ratio of 90% or more (almost completely withered)) | 5 (Herbicidal ratio of 90% or more (almost completely withered)) | 5 (Herbicidal ratio of 90% or more (almost completely withered)) | 5 (Herbicidal ratio of 90% or more (almost completely withered)) | 5 (Herbicidal ratio of 90% or more (almost completely withered)) | 4 (Herbicidal ratio of 70% or higher and lower than 90%) | 5 (Herbicidal ratio of 90% or more (almost completely withered)) | 5 (Herbicidal ratio of 90% or more (almost completely withered)) | 5 (Herbicidal ratio of 90% or more (almost completely withered)) | 4 (Herbicidal ratio of 70% or higher and lower than 90%) | 3 (Herbicidal ratio of 40% or higher and lower than 70%) | 1 (Herbicidal ratio of 5% or higher and lower than 20%) | 5 (Herbicidal ratio of 90% or more (almost completely withered))
CCC(CC1CC(O)=C(c2c(C)cc(C)cc2C)C1=O)=NOC (centres unmarked) [1-038] | 5 (Herbicidal ratio of 90% or more (almost completely withered)) | 5 (Herbicidal ratio of 90% or more (almost completely withered)) | 5 (Herbicidal ratio of 90% or more (almost completely withered)) | 5 (Herbicidal ratio of 90% or more (almost completely withered)) | 5 (Herbicidal ratio of 90% or more (almost completely withered)) | 5 (Herbicidal ratio of 90% or more (almost completely withered)) | 5 (Herbicidal ratio of 90% or more (almost completely withered)) | 5 (Herbicidal ratio of 90% or more (almost completely withered)) | 3 (Herbicidal ratio of 40% or higher and lower than 70%) | 4 (Herbicidal ratio of 70% or higher and lower than 90%) | 5 (Herbicidal ratio of 90% or more (almost completely withered)) | 5 (Herbicidal ratio of 90% or more (almost completely withered)) | 4 (Herbicidal ratio of 70% or higher and lower than 90%) | 0 (Herbicidal ratio of 5% or lower (almost no effect)) | 0 (Herbicidal ratio of 5% or lower (almost no effect)) | 4 (Herbicidal ratio of 70% or higher and lower than 90%)
COCCON=C(C)CC1CC(O)=C(c2c(C)cc(C)cc2C)C1=O (centres unmarked) [1-041] | 5 (Herbicidal ratio of 90% or more (almost completely withered)) | 5 (Herbicidal ratio of 90% or more (almost completely withered)) | 5 (Herbicidal ratio of 90% or more (almost completely withered)) | 5 (Herbicidal ratio of 90% or more (almost completely withered)) | 5 (Herbicidal ratio of 90% or more (almost completely withered)) | 5 (Herbicidal ratio of 90% or more (almost completely withered)) | 5 (Herbicidal ratio of 90% or more (almost completely withered)) | 5 (Herbicidal ratio of 90% or more (almost completely withered)) | 4 (Herbicidal ratio of 70% or higher and lower than 90%) | 4 (Herbicidal ratio of 70% or higher and lower than 90%) | 5 (Herbicidal ratio of 90% or more (almost completely withered)) | 5 (Herbicidal ratio of 90% or more (almost completely withered)) | 4 (Herbicidal ratio of 70% or higher and lower than 90%) | 3 (Herbicidal ratio of 40% or higher and lower than 70%) | 3 (Herbicidal ratio of 40% or higher and lower than 70%) | 5 (Herbicidal ratio of 90% or more (almost completely withered))
CON=C(C)CC1CC(OC(=O)C(C)Cl)=C(c2c(C)cc(C)cc2C)C1=O (centres unmarked) [1-042] | 0 (Herbicidal ratio of 5% or lower (almost no effect)) | 5 (Herbicidal ratio of 90% or more (almost completely withered)) | 5 (Herbicidal ratio of 90% or more (almost completely withered)) | 5 (Herbicidal ratio of 90% or more (almost completely withered)) | 5 (Herbicidal ratio of 90% or more (almost completely withered)) | 5 (Herbicidal ratio of 90% or more (almost completely withered)) | 5 (Herbicidal ratio of 90% or more (almost completely withered)) | 5 (Herbicidal ratio of 90% or more (almost completely withered)) | 3 (Herbicidal ratio of 40% or higher and lower than 70%) | 4 (Herbicidal ratio of 70% or higher and lower than 90%) | 5 (Herbicidal ratio of 90% or more (almost completely withered)) | 5 (Herbicidal ratio of 90% or more (almost completely withered)) | 3 (Herbicidal ratio of 40% or higher and lower than 70%) | 0 (Herbicidal ratio of 5% or lower (almost no effect)) | 0 (Herbicidal ratio of 5% or lower (almost no effect)) | 5 (Herbicidal ratio of 90% or more (almost completely withered))
